Laboratory results as given in PMC10837223, “Acute antiarrhythmic effects of SGLT2 inhibitors–dapagliflozin lowers the excitability of atrial cardiomyocytes” (Basic Research in Cardiology, 2024).

Molecular target: T1, NaV1.5 (Homo sapiens, UniProt Q14524, Y1767A)
T1 construct: gene SCN5A
Experiment: cell-based
Conditions: CHO, read-out: % reduction at 100 μmol/L

T1 sequence (Q14524 whole entry Y1767A): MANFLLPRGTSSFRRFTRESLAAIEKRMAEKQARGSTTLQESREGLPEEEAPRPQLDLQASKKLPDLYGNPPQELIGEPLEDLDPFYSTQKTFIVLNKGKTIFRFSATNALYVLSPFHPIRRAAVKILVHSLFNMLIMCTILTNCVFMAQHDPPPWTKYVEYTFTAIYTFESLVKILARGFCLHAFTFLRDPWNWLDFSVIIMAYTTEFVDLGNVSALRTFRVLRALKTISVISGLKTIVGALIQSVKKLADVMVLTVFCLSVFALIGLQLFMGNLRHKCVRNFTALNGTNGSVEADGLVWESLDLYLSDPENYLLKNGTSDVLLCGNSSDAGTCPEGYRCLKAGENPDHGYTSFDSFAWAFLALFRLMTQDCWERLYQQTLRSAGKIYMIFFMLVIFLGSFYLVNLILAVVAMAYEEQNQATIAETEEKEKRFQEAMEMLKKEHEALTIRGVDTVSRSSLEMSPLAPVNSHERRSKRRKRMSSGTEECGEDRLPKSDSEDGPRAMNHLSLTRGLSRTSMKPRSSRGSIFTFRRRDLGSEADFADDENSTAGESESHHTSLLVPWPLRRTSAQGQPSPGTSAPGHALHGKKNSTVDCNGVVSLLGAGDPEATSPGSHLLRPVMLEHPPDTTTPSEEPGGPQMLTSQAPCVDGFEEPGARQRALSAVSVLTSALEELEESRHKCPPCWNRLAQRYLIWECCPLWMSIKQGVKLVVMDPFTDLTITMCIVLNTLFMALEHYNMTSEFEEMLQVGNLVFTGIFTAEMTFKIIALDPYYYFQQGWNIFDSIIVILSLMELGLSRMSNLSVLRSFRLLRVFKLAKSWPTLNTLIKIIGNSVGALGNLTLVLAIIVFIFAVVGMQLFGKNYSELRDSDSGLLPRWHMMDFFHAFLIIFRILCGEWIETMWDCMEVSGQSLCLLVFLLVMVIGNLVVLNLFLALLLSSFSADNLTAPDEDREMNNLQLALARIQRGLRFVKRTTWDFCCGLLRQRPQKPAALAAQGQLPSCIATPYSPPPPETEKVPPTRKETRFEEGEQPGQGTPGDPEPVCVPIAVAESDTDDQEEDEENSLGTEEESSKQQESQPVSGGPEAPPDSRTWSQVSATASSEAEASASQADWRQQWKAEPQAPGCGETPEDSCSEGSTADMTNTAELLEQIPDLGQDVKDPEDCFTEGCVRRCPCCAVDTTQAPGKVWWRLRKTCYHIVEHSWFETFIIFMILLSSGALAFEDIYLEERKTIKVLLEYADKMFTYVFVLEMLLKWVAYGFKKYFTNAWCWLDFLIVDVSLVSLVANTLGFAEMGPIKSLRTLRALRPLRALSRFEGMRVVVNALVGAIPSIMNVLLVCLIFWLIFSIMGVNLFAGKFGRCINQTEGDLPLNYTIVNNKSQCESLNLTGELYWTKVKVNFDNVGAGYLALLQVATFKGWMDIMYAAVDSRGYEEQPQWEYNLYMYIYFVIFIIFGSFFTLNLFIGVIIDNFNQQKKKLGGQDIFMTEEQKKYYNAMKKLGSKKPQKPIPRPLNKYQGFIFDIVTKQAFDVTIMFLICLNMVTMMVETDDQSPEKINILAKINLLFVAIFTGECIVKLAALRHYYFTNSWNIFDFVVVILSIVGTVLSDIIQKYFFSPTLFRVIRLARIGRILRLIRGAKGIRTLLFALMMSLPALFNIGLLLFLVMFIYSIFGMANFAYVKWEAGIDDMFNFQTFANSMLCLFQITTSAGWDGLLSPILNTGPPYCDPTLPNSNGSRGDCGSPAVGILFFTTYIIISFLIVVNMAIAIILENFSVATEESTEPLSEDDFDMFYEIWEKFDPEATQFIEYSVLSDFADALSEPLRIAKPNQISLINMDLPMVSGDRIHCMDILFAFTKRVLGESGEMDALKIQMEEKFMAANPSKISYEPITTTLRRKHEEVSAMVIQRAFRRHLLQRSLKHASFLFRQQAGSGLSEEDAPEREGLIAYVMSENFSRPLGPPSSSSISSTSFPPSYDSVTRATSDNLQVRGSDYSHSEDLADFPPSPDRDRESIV

CCOc1ccc(Cc2cc([C@@H]3O[C@H](CO)[C@@H](O)[C@H](O)[C@H]3O)ccc2Cl)cc1 [dapagliflozin]
inhibition at 100 µM: 68.3 ± 4.2%
